#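 Test compounds were applied to cells in 96-well plates for 48 hours at 5 doses. At the GI50, growth is halved. TGI: total growth inhibition.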
# Columns and labels:
# Experiment in all cases: inhibition of tumour cell growth, NCI panel, 48 h
# [1] = system: HS 578T breast
# [2] = system: IGROV1 ovarian
# [3] = system: DU-145 prostate
# [4] = system: HOP-92 NSCLC
# [5] = system: EKVX NSCLC
# [6] = system: OVCAR-5 ovarian
# [7] = system: SK-MEL-5 melanoma
# [8] = system: RPMI-8226 leukemia
# [9] = system: MDA-MB-435
# [10] = system: SR leukemia
# [11] = system: KM12 colon
# [12] = system: HOP-62 NSCLC
# [13] = system: SNB-75 CNS
# [14] = system: 786-0 renal
# [15] = system: OVCAR-4 ovarian
# [16] = system: SF-295 CNS
# [17] = system: SN12C renal
# [18] = system: HCT-15 colon
# [19] = system: SK-OV-3 ovarian
# [20] = system: HL-60(TB) leukemia
# [21] = system: MDA-MB-231 breast
# [22] = system: NCI-H460 lung
# [23] = system: ACHN renal
# [24] = system: SW-620 colon
# [25] = system: A498 renal
# [26] = system: UACC-62 melanoma
# [27] = system: OVCAR-3 ovarian
# [28] = system: MCF7 breast
# [29] = system: OVCAR-8 ovarian
# [30] = system: HCC-2998 colon
# [31] = system: SK-MEL-28 melanoma
# [32] = system: TK-10 renal
# [33] = system: T-47D breast
# [34] = system: SK-MEL-2 melanoma
# [35] = system: RXF 393 renal
# [36] = system: MDA-N
# [37] = system: U251 CNS
# [38] = system: PC-3 prostate
# [39] = system: SF-539 CNS
# [40] = system: NCI-H23 lung
# [41] = system: UACC-257 melanoma
# [42] = system: CCRF-CEM leukemia
# [43] = system: SF-268 CNS
# [44] = system: NCI-H226 lung
# [45] = system: MALME-3M melanoma
# [46] = system: CAKI-1 renal
# [47] = system: HT29 colon
# [48] = system: UO-31 renal
# [49] = system: A549 NSCLC
# [50] = system: MOLT-4 leukemia
# [51] = system: HCT-116 colon
# [52] = system: NCI-H522 lung
# [53] = system: LOX IMVI melanoma
# [54] = system: M14 melanoma
# [55] = system: BT-549 breast
# [56] = system: COLO 205 colon
# [57] = system: K-562 leukemia
# [58] = system: SNB-19 CNS
# [59] = system: NCI/ADR-RES ovarian
smiles,measurement,setting,value
C/C=C/C(O)P(=O)(OC)OC (stereo not drawn),TGI,[1],0.915 µM
same,TGI,[2],1.01 µM
same,TGI,[3],1.49 µM
same,TGI,[4],0.27 µM
same,TGI,[5],1.51 µM
same,TGI,[6],1.22 µM
same,TGI,[7],0.483 µM
same,TGI,[8],0.514 µM
same,TGI,[9],0.802 µM
same,TGI,[10],> 100 µM
same,TGI,[11],0.936 µM
same,TGI,[12],2.23 µM
same,TGI,[13],1.49 µM
same,TGI,[14],0.36 µM
same,TGI,[15],1.51 µM
same,TGI,[16],1.39 µM
same,TGI,[17],1.79 µM
same,TGI,[18],1.06 µM
same,TGI,[19],2.51 µM
same,TGI,[20],0.591 µM
same,TGI,[21],1.57 µM
same,TGI,[22],0.93 µM
same,TGI,[23],1.25 µM
same,TGI,[24],0.982 µM
same,TGI,[25],0.955 µM
same,TGI,[26],0.785 µM
same,TGI,[27],0.783 µM
same,TGI,[28],1.01 µM
same,TGI,[29],1.78 µM
same,TGI,[30],0.774 µM
same,TGI,[31],1.36 µM
same,TGI,[32],1.45 µM
same,TGI,[33],1.55 µM
same,TGI,[34],1 µM
same,TGI,[35],0.543 µM
same,TGI,[36],0.671 µM
same,TGI,[37],0.872 µM
same,TGI,[38],1.43 µM
same,TGI,[39],0.74 µM
same,TGI,[40],1.2 µM
same,TGI,[41],0.792 µM
same,TGI,[42],> 100 µM
same,TGI,[43],0.914 µM
same,TGI,[44],1.39 µM
same,TGI,[45],1.17 µM
same,TGI,[46],1.85 µM
same,TGI,[47],1.11 µM
same,TGI,[48],0.334 µM
same,TGI,[49],1.07 µM
same,TGI,[50],11.2 µM
same,TGI,[51],0.835 µM
same,TGI,[52],0.664 µM
same,TGI,[53],0.392 µM
same,TGI,[54],0.463 µM
same,TGI,[55],1.8 µM
same,TGI,[56],0.366 µM
same,TGI,[57],2.63 µM
same,TGI,[58],1.53 µM
O=c1oc2ccccc2c(O)c1Cc1ccccc1Cc1c(O)c2ccccc2oc1=O,TGI,[1],> 100 µM
same,TGI,[2],> 100 µM
same,TGI,[3],> 100 µM
same,TGI,[4],> 100 µM
same,TGI,[5],> 100 µM
same,TGI,[6],> 100 µM
same,TGI,[7],> 100 µM
same,TGI,[8],> 100 µM
same,TGI,[9],> 100 µM
same,TGI,[11],> 100 µM
same,TGI,[12],> 100 µM
same,TGI,[13],> 100 µM
same,TGI,[14],> 100 µM
same,TGI,[15],> 100 µM
same,TGI,[16],> 100 µM
same,TGI,[17],> 100 µM
same,TGI,[18],> 100 µM
same,TGI,[19],> 100 µM
same,TGI,[20],> 100 µM
same,TGI,[21],> 100 µM
same,TGI,[22],> 100 µM
same,TGI,[23],> 100 µM
same,TGI,[24],> 100 µM
same,TGI,[25],> 100 µM
same,TGI,[26],> 100 µM
same,TGI,[27],> 100 µM
same,TGI,[28],> 100 µM
same,TGI,[29],> 100 µM
same,TGI,[31],> 100 µM
same,TGI,[32],> 100 µM
same,TGI,[33],> 100 µM
same,TGI,[34],> 100 µM
same,TGI,[35],> 100 µM
same,TGI,[36],> 100 µM
same,TGI,[37],> 100 µM
same,TGI,[38],> 100 µM
same,TGI,[39],> 100 µM
same,TGI,[40],> 100 µM
same,TGI,[59],> 100 µM
same,TGI,[41],> 100 µM
same,TGI,[42],> 100 µM
same,TGI,[43],> 100 µM
same,TGI,[44],> 100 µM
same,TGI,[45],> 100 µM
same,TGI,[46],> 100 µM
same,TGI,[47],> 100 µM
same,TGI,[48],> 100 µM
same,TGI,[49],> 100 µM
same,TGI,[50],> 100 µM
same,TGI,[51],> 100 µM
same,TGI,[52],> 100 µM
same,TGI,[53],> 100 µM
same,TGI,[54],> 100 µM
same,TGI,[55],> 100 µM
same,TGI,[56],> 100 µM
same,TGI,[57],> 100 µM
same,TGI,[58],> 100 µM
CCOC(=O)CCCOc1cc(-c2ccccc2F)nc2cc3c(cc12)OCO3,TGI,[2],> 100 µM
same,TGI,[3],> 100 µM
same,TGI,[4],> 100 µM
same,TGI,[5],> 100 µM
same,TGI,[6],> 100 µM
same,TGI,[7],> 100 µM
same,TGI,[8],> 100 µM
same,TGI,[9],> 100 µM
same,TGI,[10],> 100 µM
same,TGI,[11],> 100 µM
same,TGI,[12],> 100 µM
same,TGI,[13],> 100 µM
same,TGI,[14],> 100 µM
same,TGI,[17],> 100 µM
same,TGI,[18],14.5 µM
same,TGI,[19],> 100 µM
same,TGI,[21],> 100 µM
same,TGI,[24],> 100 µM
same,TGI,[26],> 100 µM
same,GI50,[27],15 µM
same,TGI,[27],55.7 µM
same,TGI,[28],> 100 µM
same,TGI,[29],> 100 µM
same,TGI,[30],32.1 µM
same,TGI,[31],> 100 µM
same,TGI,[32],> 100 µM
same,TGI,[33],> 100 µM
same,TGI,[34],> 100 µM
same,GI50,[35],25 µM
same,TGI,[35],> 100 µM
same,TGI,[36],> 100 µM
same,TGI,[37],> 100 µM
same,TGI,[38],> 100 µM
same,TGI,[39],> 100 µM
same,TGI,[40],> 100 µM
same,TGI,[59],> 100 µM
same,TGI,[41],> 100 µM
same,TGI,[42],> 100 µM
same,GI50,[43],> 100 µM
same,TGI,[43],> 100 µM
same,GI50,[44],48.7 µM
same,TGI,[44],> 100 µM
same,TGI,[45],> 100 µM
same,TGI,[46],> 100 µM
same,TGI,[47],> 100 µM
same,TGI,[49],> 100 µM
same,TGI,[50],98 µM
same,GI50,[51],> 100 µM
same,TGI,[51],> 100 µM
same,TGI,[53],> 100 µM
same,TGI,[54],> 100 µM
same,TGI,[55],> 100 µM
same,TGI,[56],> 100 µM
C=CCc1cccc(/C(O)=C/C(=O)/C=C/c2ccccc2Cl)c1O,TGI,[2],29.6 µM
same,TGI,[3],> 100 µM
same,TGI,[4],55.2 µM
same,TGI,[5],> 100 µM
same,TGI,[6],> 100 µM
same,TGI,[7],31.7 µM
same,TGI,[8],36.5 µM
same,TGI,[9],> 100 µM
same,TGI,[10],16 µM
same,TGI,[11],97 µM
same,TGI,[12],61.2 µM
same,TGI,[13],> 100 µM
same,TGI,[14],> 71.6 µM
same,TGI,[16],> 87.7 µM
same,TGI,[17],> 100 µM
same,TGI,[18],> 100 µM
same,TGI,[19],97.1 µM
same,TGI,[21],> 93.6 µM
same,TGI,[22],> 100 µM
same,TGI,[23],> 100 µM
same,TGI,[24],90.1 µM
same,TGI,[25],45 µM
same,TGI,[26],43.3 µM
same,TGI,[27],76.3 µM
same,TGI,[28],> 100 µM
same,TGI,[29],25.5 µM
same,TGI,[30],> 100 µM
same,TGI,[31],> 57.5 µM
same,TGI,[32],> 100 µM
same,TGI,[33],> 100 µM
same,TGI,[34],26.2 µM
same,TGI,[35],75.8 µM
same,TGI,[36],> 100 µM
same,TGI,[37],> 63.1 µM
same,TGI,[38],85 µM
same,TGI,[39],72 µM
same,TGI,[40],21.8 µM
same,TGI,[59],45.9 µM
same,TGI,[41],> 70.4 µM
same,TGI,[42],95.1 µM
same,TGI,[43],> 100 µM
same,TGI,[44],> 75.6 µM
same,TGI,[46],> 100 µM
same,TGI,[47],42.5 µM
same,TGI,[48],32.7 µM
same,TGI,[49],> 100 µM
same,TGI,[50],15.6 µM
same,TGI,[51],> 54.3 µM
same,TGI,[52],31 µM
same,TGI,[53],24.6 µM
same,TGI,[54],> 100 µM
same,TGI,[55],> 81.3 µM
same,TGI,[56],> 58.7 µM
same,TGI,[57],> 25.2 µM
same,TGI,[58],> 84 µM

# Reference: PubChem BioAssay (NCI)
